Assay results taken from patent US10759774B2, “Inhibitors of hepatitis B virus targeting capsid assembly” (THE CURATORS OF THE UNIVERSITY OF MISSOURI, priority 2017, dated 2020).
Read-outs that look alike come from different tables or passages of the source.

Key:
[1] = tested on: HBV; assay: Cell-based anti-HBV activity of HF9C6 analogs (Table 2; HBV DNA in HepAD38 cells); settings: Hepatitis B virus
Description: HepAD38 cells (5×10^4) were plated in 96-well plates in tet media. The next day, cells were washed 2× with PBS, and the media was replaced with complete media (DMEM, 10% FBS) containing compounds. Fresh complete media with compounds was added again after 2 days. After 2 additional days, cells were washed with PBS, trypsinized, and pelleted by centrifugation. The cell pellet was resuspended in 200 μl PBS, and DNA was extracted and analyzed as above. For dose responses, values were plotted in GraphPad Prism 5 and analyzed with the log (inhibitor) vs. normalized response—variable slope equation.
HepAD38 cells were seeded in 96-well plates (3×10^4 cells/well) in tet media. […] After 2 days, the media was removed, and fresh media containing compounds was added. After 2 additional days, cells were washed with PBS and lysed with 10 mM Tris (pH 7.5), 1mM EDTA, 100mM NaCl, 1% NP-40 at 37° C. for 30 min. 60 μl of lysate was added to 60 μl of 1 M NaOH, 1.5 M NaCl and incubated at RT for 5 min to denature DNA. 120 μl of 1 M Tris (pH 7.4), 2 M NaCl was added. Samples were transferred to positively charged nylon membranes (Roche) using a vacuum dot blot manifold. The wells were washed with 200 μl of 20× SSC (3M NaCl, 300 mM sodium citrate), and the DNA was UV crosslinked to the membranes. […] Membranes were incubated with CDP-STAR® chemiluminescent substrate (Roche), imaged by chemiluminescence, and quantified by densitometry. Values were plotted in GraphPad Prism 5 and analyzed with the log (inhibitor) vs. normalized response—variable slope equation.

[2] = Cytotoxicity, Cell Proliferation Kit II (XTT) (Table 2); type: cell-based; settings: human
Description: HepG2 cells were treated with compounds as in the antiviral screening above. At the end of treatment duration, cell viability was assessed with the Cell Proliferation Kit II (XTT) (Roche, Basel, Switzerland) according to the manufacturer's instructions. Values were plotted in GraphPad Prism 5 and analyzed with the log (inhibitor) vs. normalized response—variable slope equation.

[3] = Table 2, cell-based, read-out: EC50

Structure (SMILES)	EC50 [1, 3]	CC50 ([2]; HepG2 cells)	also measured
COc1ccc(NC(=O)c2sc(N)c(C(N)=O)c2C)cc1 [ZW-769, 5-Amino-N2-(4-methoxyphenyl)-3-methylthiophene-2,4-dicarboxamide]	~10 µM		
Cc1c(C(=O)NCc2ccccc2)sc(N)c1C(N)=O [ZW-770, 5-Amino-N2-benzyl-3-methylthiophene-2,4-dicarboxamide]	~10 µM		
Cc1ccc(NC(=O)c2sc(N)c(C(N)=O)c2C)cc1 [ZW-771, 5-Amino-3-methyl-N2-(p-tolyl)thiophene-2,4-dicarboxamide]	> 10 µM		
CCOC(=O)c1sc2[nH]c(Cc3ccccc3)nc(=O)c2c1C [ZW-772, Ethyl 2-benzyl-5-methyl-4-oxo-1,4-dihydrothieno[2,3-d]pyrimidine-6-carboxylate]			EC50 [1]: > 10 µM
CCOC(=O)c1sc2[nH]c(Cc3cc(C)cc(C)c3)nc(=O)c2c1C [ZW-773, Ethyl 2-(3,5-dimethylbenzyl)-5-methyl-4-oxo-1,4-dihydrothieno[2,3-d]pyrimidine-6-carboxylate]	> 10 µM		
CCOC(=O)c1sc2[nH]c(Cc3ccc(-c4ccccc4)cc3)nc(=O)c2c1C [ZW-774, Ethyl 2-([1,1′-biphenyl]-4-ylmethyl)-5-methyl-4-oxo-1,4-dihydrothieno[2,3-d]pyrimidine-6-carboxylate]	> 10 µM		
CCOC(=O)c1sc2[nH]c(-c3ccc(C)c(F)c3)nc(=O)c2c1C [ZW-775, Ethyl 2-(3-fluoro-4-methylphenyl)-5-methyl-4-oxo-1,4-dihydrothieno[2,3-d]pyrimidine-6-carboxylate]	> 10 µM		
CCOC(=O)c1sc2[nH]c(Cc3ccc(F)cc3)nc(=O)c2c1C [ZW-776, Ethyl 2-(4-fluorobenzyl)-5-methyl-4-oxo-1,4-dihydrothieno[2,3-d]pyrimidine-6-carboxylate]	> 10 µM		
CCOC(=O)c1sc2[nH]c(C3CCCCC3)nc(=O)c2c1C [ZW-777, Ethyl 2-cyclohexyl-5-methyl-4-oxo-1,4-dihydrothieno[2,3-d]pyrimidine-6-carboxylate]	> 10 µM		
Cc1c(C(=O)Nc2ccccc2)sc(N)c1C(=O)NCc1ccc(C(F)(F)F)cc1 [ZW-790, 5-Amino-3-methyl-N2-phenyl-N4-(4-(trifluoromethyl)benzyl)thiophene-2,4-dicarboxamide]	> 10 µM		
COc1ccc(CNC(=O)c2c(N)sc(C(=O)Nc3ccccc3)c2C)cc1 [ZW-791, 5-Amino-N4-(4-methoxybenzyl)-3-methyl-N2-phenylthiophene-2,4-dicarboxamide]	> 10 µM		
Cc1c(C(=O)Nc2ccccc2)sc(N)c1C(=O)Nc1ccccc1 [ZW-794, 5-Amino-3-methyl-N2,N4-diphenylthiophene-2,4-dicarboxamide]		> 100 µM	
Cc1c(C(=O)Nc2ccc(F)c(F)c2)sc(N)c1C(=O)Nc1ccccc1 [ZW-892, 5-Amino-N2-(3,4-difluorophenyl)-3-methyl-N4-phenylthiophene-2,4-dicarboxamide]			CC50 [2]: 26.2 ± 2.7 µM
Cc1c(C(=O)Nc2ccc(F)c(F)c2)sc(N)c1C(N)=O [ZW-896, 5-Amino-N2-(3,4-difluorophenyl)-3-methylthiophene-2,4-dicarboxamide]		> 100 µM	
Cc1c(C(=O)Nc2ccc(F)c(F)c2)sc(N)c1C(=O)Nc1ccc(F)c(F)c1 [ZW-932, 5-Amino-N2,N4-bis(3,4-difluorophenyl)-3-methylthiophene-2,4-dicarboxamide]		17.4 ± 1.3 µM	
Cc1c(C(=O)Nc2ccccc2)sc(N)c1C(=O)Nc1ccc(F)c(F)c1 [ZW-933, 5-Amino-N4-(3,4-difluorophenyl)-3-methyl-N2-phenylthiophene-2,4-dicarboxamide]			CC50 [2]: 40.5 ± 5.1 µM
Cc1cc(NC(=O)c2c(N)sc(C(=O)Nc3ccccc3)c2C)ccc1F [ZW-934, 5-Amino-N4-(4-fluoro-3-methylphenyl)-3-methyl-N2-phenylthiophene-2,4-dicarboxamide]			CC50 [2]: 39.6 ± 2.6 µM

Structure (SMILES)	EC50 [1, 3]	CC50 ([2]; HepG2 cells)	also measured
Cc1c(C(=O)Nc2cc(F)c(F)c(Cl)c2)sc(N)c1C(N)=O [ZW-1034, 5-Amino-N2-(3-chloro-4,5-difluorophenyl)-3-methylthiophene-2,4-dicarboxamide]			CC50 [2]: 71.8 ± 4.1 µM
Cc1c(C(=O)Nc2ccc(F)cc2)sc(N)c1C(N)=O [ZW-1037, 5-Amino-N2-(4-fluorophenyl)-3-methylthiophene-2,4-dicarboxamide]		> 100 µM	
Cc1c(C(=O)Nc2ccc(F)c(C#N)c2)sc(N)c1C(N)=O [ZW-1039, 5-Amino-N2-(3-cyano-4-fluorophenyl)-3-methylthiophene-2,4-dicarboxamide]		> 100 µM	
Cc1c(C(=O)Nc2ccccc2)sc(NC(=O)c2cc(Cl)cc(Cl)c2)c1C(N)=O [ZW-1040, 5-(3,5-Dichlorobenzamido)-3-methyl-N2-phenylthiophene-2,4-dicarboxamide]			CC50 [2]: 49.5 ± 0.1 µM
Cc1cc(NC(=O)c2sc(N)c(C#N)c2C)ccc1F [ZW-1044, 5-Amino-4-cyano-N-(4-fluoro-3-methylphenyl)-3-methylthiophene-2-carboxamide]			CC50 [2]: 96.1 ± 10.1 µM
CCOC(=O)c1c(N)sc(C(=O)Nc2ccc(F)c(C)c2)c1C [ZW-1046, Ethyl 2-amino-5-((4-fluoro-3-methylphenyl)carbamoyl)-4-methylthiophene-3-carboxylate]		> 100 µM	
Cc1c(C(=O)Nc2ccccc2)sc(NC(=O)c2cn[nH]c2)c1C(N)=O [ZW-1052, 3-Methyl-N2-phenyl-5-(1H-pyrazole-4-carboxamido)thiophene-2,4-dicarboxamide]		> 100 µM	
Cc1c(C(=O)Nc2ccccc2)sc(NC(=O)c2nccs2)c1C(N)=O [ZW-1053, 3-Methyl-N2-phenyl-5-(thiazole-2-carboxamido)thiophene-2,4-dicarboxamide]		> 100 µM	
Cc1c(C(=O)Nc2ccccc2)sc(NC(=O)c2csc([N+](=O)[O-])c2)c1C(N)=O [ZW-1054, 3-Methyl-5-(5-nitrothiophene-3-carboxamido)-N2-phenylthiophene-2,4-dicarboxamide]		> 100 µM	
Cc1c(C(=O)Nc2ccccc2)sc(NC(=O)c2ccsc2)c1C(N)=O [ZW-1055, 3-Methyl-N2-phenyl-5-(thiophene-3-carboxamido)thiophene-2,4-dicarboxamide]		> 100 µM	
Cc1ccc(C(=O)Nc2sc(C(=O)Nc3ccccc3)c(C)c2C(N)=O)s1 [ZW-1056, 3-Methyl-5-(5-methylthiophene-2-carboxamido)-N2-phenylthiophene-2,4-dicarboxamide]		> 100 µM	
Cc1c(C(=O)Nc2ccc(F)c(C(F)(F)F)c2)sc(N)c1C(N)=O [ZW-1057, 5-Amino-N2-(4-fluoro-3-(trifluoromethyl)phenyl)-3-methylthiophene-2,4-dicarboxamide]		> 100 µM	
Cc1c(C(=O)Nc2ccc(F)c(C(F)F)c2)sc(N)c1C(N)=O [ZW-1066, 5-Amino-N2-(3-(difluoromethyl)-4-fluorophenyl)-3-methylthiophene-2,4-dicarboxamide]		> 100 µM	
Cc1c(C(=O)Nc2ccc(Cl)c(C(F)(F)F)c2)sc(N)c1C(N)=O [ZW-1067, 5-Amino-N2-(4-chloro-3-(trifluoromethyl)phenyl)-3-methylthiophene-2,4-dicarboxamide]			CC50 [2]: 72.1 ± 6.4 µM
Cc1cc(NC(=O)c2sc(N)c(C(N)=O)c2C)ccc1Br [ZW-1068, 5-Amino-N2-(4-bromo-3-methylphenyl)-3-methylthiophene-2,4-dicarboxamide]			CC50 [2]: 107 ± 7.2 µM
Cc1c(C(=O)Nc2ccccc2)sc(NC(=O)c2ccc(S(C)(=O)=O)cc2)c1C(N)=O [ZW-1073, 3-Methyl-5-(4-(methylsulfonyl)benzamido)-N2-phenylthiophene-2,4-dicarboxamide]		> 100 µM	
